Converted amounts (≈) assume the structure as drawn. “Also recorded” adds a separate entry of the source. Residues, ends and D or L forms follow the SMILES beside them.
Tests used:
[1] = Hydrogelation and gel appearance by visual inspection; assay type: physicochemical
Experimental: All FTIR measurements were collected on samples where a trifluoroacetate (TFA^–) to chloride ion exchange was performed to eliminate signals from the TFA^– carbonyl moiety in the amide I spectral region (Figure S1). FTIR spectra were collected for P0–P5 in D2O at six pD values (3.0, 5.0, 7.0, 8.0, 9.0, and 10.0) (Figures S2–S7). FTIR analysis for P6–P8 was performed at a pD of 8.0 (Figures S8–S10). The bulk of FTIR studies were performed at pD 8.0, as the optimum pH range for hydrogelation is 7–9 for both SgI38–48[28] and P0.
(§1) All samples were prepared in nonstick Eppendorf tubes (Axygen, Inc.). Prior to the final sample preparation (for all FTIR samples and when otherwise stated), the TFA counteranions present in the peptide sample after HPLC purification were exchanged for chloride using the following protocol: lyophilized peptide was dissolved in deionized D2O (1.0 mL). HCl was added at a molar ratio of 13.7:1 HCl:peptide. For the Phe^CN mutants, the sample was divided into two groups and lyophilized. One sample was then redissolved in H2O (to avoid obscuring the O–D stretches in the nitrile region) and the other in D2O (to avoid overlapping of the O-H bending vibrations in the amide I region) to a final concentration of 2.0 mM, unless otherwise specified. All other peptide samples were redissolved in D2O. The exchange of TFA^– to chloride may be verified by a lack of signal at 1672 cm^–1, seen in the IR spectrum for the deuterium-exchanged TFA salt of P3, where the carbonyl signal from TFA is well separated from the amide I carbonyl high frequency stretch at 1684 cm^–1 (Figure S1). On the day of the peptide sample preparation, D2O was placed in an Eppendorf tube, was then used as background when collecting data points (0 h, 48 h, 1 week, etc.), and was assumed to absorb the same amount of H2O over time as the peptide sample prepared on the same day. The concentration of the peptide solutions was verified with the UV–vis absorbance peak at 280 nm using a molar absorptivity of 2560 M^–1 cm^–1 for all sequences (P0–P7). The pH/pD of the samples was then corrected to 8.0 using small volumes of NaOH and HCl (or NaOD and DCl). After attaining the desired pH/pD, samples were incubated at ambient temperature (ca. 22 °C) and followed over 7 days (or as specified) to allow for hydrogelation.

[2] = SAXS/WAXS of fibrils, elliptical cylinder model fit; assay type: physicochemical
Experimental: Small- and wide-angle X-ray scattering (SAXS/WAXS) measurements were performed on a SAXSLabs Ganesha pinhole instrument (JJ X-ray System Aps) with an X-ray microsource (Xenocs) and a two-dimensional 300k Pilatus detector (Dectris Ltd., Switzerland). The wavelength, λ, used for all scattering experiments was 1.54 Å, and samples were measured at three sample-to-detector distances. All samples (200 μL) were loaded into a 1.5 mm diameter quartz capillary (Hilgenberg GmbH, Malsfeld, Germany), and the time-averaged scattering intensities were analyzed using a python code. The scattering intensity was corrected to an absolute scale by calibration against water. Supramolecular dimensions were extracted from SAXS data by using the SasView software and fitting the scattering curves to an elliptical-cylinder model (www.sasview.org).

[3] = Cryo-TEM of fibril formation and morphology; assay type: physicochemical
Experimental: Images were obtained at the National Center for High Resolution Electron Microscopy within Lund University on a JEOL JEM-2200 transmission electron microscopy instrument using a TVIPS F416 camera with an accelerator voltage of 200 kV. […] Grids were glow-discharged prior to sample preparation. Image processing was performed on the open-source software ImageJ (https://imagej.nih.gov) with the FIJI processing package.

[4] = FTIR amide I: β-sheet self-assembly; assay type: physicochemical; settings: D2O, pD 8.0, 2.0 mM (P7, P8 and F40FCN 1.0 mM), ambient temperature
Experimental: as §1
FT IR was performed with a Bruker Vertex 70 spectrometer with a photovoltaic mercury cadmium telluride (MTC) detector. Before the spectral collection, the MCT detector was cooled with liquid nitrogen. A background spectrum (see hydrogel sample preparation above) was collected (6 μL of H2O or D2O), and the collection chamber was purged for 15 min before 6 μL of sample was loaded in between two CaF2 windows and separated by a 50-μm Teflon spacer in a 25-mm diameter demountable liquid cell (Harrick Scientific). After purging again, the IR spectrum was collected with 512 scans, with a resolution of 2 cm^–1, from 900 cm^–1 to 4000 cm^–1 at time t = 0 h, 24 h, 48 h, and 1 week (and sometimes longer) after sample constitution, processed using OPUS spectroscopy software, and plotted with Origin or KaleidaGraph.

Solubility in water = assay type: physicochemical; settings: for Solubility in water (in words): P7 and P8 not tested above 1.0 mM at pH 8
[5] = cited from earlier work
Excerpt: The present study targets a relatively complex 13-residue peptide for which we attempt to uncover the underlying chemical principles behind hydrogelation and correlations between sequence, structure, and bulk mechanical properties. The peptide is derived from the human protein semenogelin I (SgI), which is the main proteinaceous constituent in seminal plasma. SgI is also present in nonreproductive tissues including skeletal muscles, the trachea, and the gastrointestinal tract.[35] We previously reported that a short fragment of SgI forms a pH-responsive gel, similar in properties to the full-l ... || All FTIR measurements were collected on samples where a trifluoroacetate (TFA^–) to chloride ion exchange was performed to eliminate signals from the TFA^– carbonyl moiety in the amide I spectral region (Figure S1). FTIR spectra were collected for P0–P5 in D2O at six pD values (3.0, 5.0, 7.0, 8.0, 9.0, and 10.0) (Figures S2–S7). FTIR analysis for P6–P8 was performed at a pD of 8.0 (Figures S8–S10). The bulk of FTIR studies were performed at pD 8.0, as the optimum pH range for hydrogelati ...

[6] = SAXS, elliptical cylinder model fit, 2.0 mM, day 7 at 21 °C, pH 8.0

CC[C@H](C)[C@H](NC(C)=O)C(=O)N[C@@H](CCC(N)=O)C(=O)N[C@@H](Cc1ccc(O)cc1)C(=O)N[C@H](C(=O)N[C@@H](Cc1ccc(O)cc1)C(=O)N[C@@H](Cc1c[nH]cn1)C(=O)N[C@H](C(=O)N[C@@H](CC(=O)O)C(N)=O)C(C)C)[C@@H](C)O [P5] (Ac-IQYTYHVD-NH2)
Colloidal stability / phase separation of the hydrogel ([1]; visual inspection after hydrogel preparation, pH/pD 8.0, 2.0 mM, ambient temperature): colloidally unstable and undergoes phase separation | Fibril axis ratio [2, 6]: 1.9 | Fibril cross-sectional area [2, 6]: 65.0 nm^2 | Fibril minor radius (minor semiaxis) [2, 6]: 3.3 nm | Repeat distance of sharp SAXS peak at q = 0.305 Å^–1 ([2]; after 1 day of incubation at 21 °C): 2.1 nm | Diameter of fibril bundle (cryo-TEM) ([3]; after 7 days of incubation at 21 °C, bundle of approximately 5 fibrils): ~10 nm

CC(=O)N[C@@H](Cc1ccc(O)cc1)C(=O)N[C@H](C(=O)N[C@@H](Cc1ccc(O)cc1)C(=O)N[C@@H](Cc1c[nH]cn1)C(=O)N[C@H](C(=O)N[C@@H](CC(=O)O)C(N)=O)C(C)C)[C@@H](C)O [P7] (Ac-YTYHVD-NH2)
β-Sheet secondary structure (self-assembly) by FTIR amide I [4]: no sign of a β-sheet secondary structure; also recorded: unstructured | Hydrogel formation ([1]; visual inspection, peptide in water/D2O, pH/pD 8.0, 2.0 mM (P7 1.0 mM), ambient temperature ca. 22 °C, up to 7 days): inability of P7 to form a hydrogel | Solubility in water (in words) (Solubility in water): low solubility | solubility (Solubility in water; pH 8.0, read-out: Solubility limit in water): 1000 µM (≈ 838 µg/mL) | Fibril formation by SAXS scattering ([2]; 2.0 mM P0–P6, 1.0 mM P7, 7 days at 21 °C, pH 8.0): no significant scattering is observed | Presence of fibrils (cryo-TEM) ([3]; pH 8.0 water, 2.0 mM (P7 1.0 mM), incubation at 21 °C): contains no fibrils

CC[C@H](C)[C@H](NC(=O)[C@H](CO)NC(=O)[C@H](Cc1ccccc1)NC(=O)[C@H](CO)NC(=O)CNC(C)=O)C(=O)N[C@@H](CCC(N)=O)C(=O)N[C@@H](Cc1ccc(O)cc1)C(=O)N[C@H](C(=O)N[C@@H](Cc1ccc(O)cc1)C(=O)N[C@@H](Cc1c[nH]cn1)C(=O)N[C@H](C(N)=O)C(C)C)[C@@H](C)O [SgI38–48, AcNH–GSFSIQYTYHV–CONH2] (Ac-GSFSIQYTYHV-NH2)
Solubility in water (in words) (Solubility in water): limited solubility in water | Optimum pH range for hydrogelation [5]: 7–9 | Concentration at which the peptide self-assembles into a hydrogel network ([5]; physiological conditions): 0.5 % w/v

Source: paper PMC11562788, “Insights into the Hierarchical Assembly of a Chemically Diverse Peptide Hydrogel Derived from Human Semenogelin I” (ACS Nano, 2024)
